Source: PubChem BioAssay AID180 (DTP/NCI, 2004)
Several values for one entry are separate records, joined by “and”; a condition that tells them apart may be missing. Equal entries are not always repeated.

Tested on: BDF1 mice, Adenocarcinoma 755 s.c., tumor weight T/C
Experiment: NCI In Vivo Anticancer Drug Screen. Data for tumor model Adenocarcinoma 755 (subcutaneous) in B6D2F1 (BDF1) mice
Conditions: endpoint: mean tumor weight, higher = larger tumour
How it was run: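 Tumor-bearing mice receive test compound while controls get vehicle alone. Antitumor effect is scored from survival or tumor dimensions as a T/C quotient.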

[1] = dose: 31.25 mg/kg/injection, schedule: Q01DX011 (ip), vehicle: methylcellulose (MC)
[2] = dose: 62.5 mg/kg/injection, schedule: Q01DX011 (ip), vehicle: methylcellulose (MC)
[3] = dose: 250.0 mg/kg/injection, schedule: Q01DX011 (ip), vehicle: saline

In the case of `CN(C)c1nc(N(C)C)nc(N(C)C)n1`, the T/C (dose: 4.75 mg/kg/injection, schedule: Q01DX011 (ip), vehicle: other) is reported as 121 % of control, the T/C (dose: 9.5 mg/kg/injection, schedule: Q01DX011 (ip), vehicle: other) is reported as 67 % of control and the T/C (dose: 10.88 mg/kg/injection, schedule: Q01DX011 (ip), vehicle: other) is reported as 95 % of control. The T/C (dose: 10.9 mg/kg/injection, schedule: Q01DX011 (ip), vehicle: other) was 95 % of control, the T/C (dose: 11.25 mg/kg/injection, schedule: Q01DX011 (iv), vehicle: other) was 108 % of control and the T/C (dose: 13.85 mg/kg/injection, schedule: Q01DX011 (ip), vehicle: carboxymethylcellulose (CMC)) was 87 % of control. The T/C (dose: 13.85 mg/kg/injection, schedule: Q01DX011 (ip), vehicle: other) was 104 % of control, the T/C (dose: 14.13 mg/kg/injection, schedule: Q01DX011 (ip), vehicle: other) was 117 % of control and the T/C (dose: 15.6 mg/kg/injection, schedule: Q01DX011 (oral), vehicle: other) was 77 % of control. The T/C (dose: 15.6 mg/kg/injection, schedule: Q01DX011 (oral), vehicle: saline) was 88 % of control, the T/C (dose: 19.0 mg/kg/injection, schedule: Q01DX011 (ip), vehicle: other) was 53 % of control and the T/C (dose: 21.75 mg/kg/injection, schedule: Q01DX011 (ip), vehicle: other) was 55 % of control and 73 % of control. For the same compound, the T/C (dose: 22.5 mg/kg/injection, schedule: Q01DX011 (iv), vehicle: other) was 67 % of control, the T/C (dose: 25.0 mg/kg/injection, schedule: Q01DX011 (ip), vehicle: other) was 59 % of control and the T/C (dose: 27.7 mg/kg/injection, schedule: Q01DX011 (ip), vehicle: carboxymethylcellulose (CMC)) was 161 % of control. For the same compound, the T/C (dose: 27.7 mg/kg/injection, schedule: Q01DX011 (ip), vehicle: other) was 56 % of control, the T/C (dose: 30.37 mg/kg/injection, schedule: Q01DX011 (ip), vehicle: carboxymethylcellulose (CMC)) was 53 % of control and the T/C (dose: 31.25 mg/kg/injection, schedule: Q01DX011 (ip), vehicle: carboxymethylcellulose (CMC)) was 118 % of control. For the same compound, the T/C [1] was 91 % of control, the T/C (dose: 31.25 mg/kg/injection, schedule: Q01DX011 (iv), vehicle: other) was 80 % of control and 85 % of control and the T/C (dose: 31.3 mg/kg/injection, schedule: Q01DX011 (oral), vehicle: other) was 101 % of control. For the same compound, the T/C (dose: 31.3 mg/kg/injection, schedule: Q01DX011 (oral), vehicle: saline) was 75 % of control, the T/C (dose: 34.8 mg/kg/injection, schedule: Q01DX011 (ip), vehicle: carboxymethylcellulose (CMC)) was 50 % of control and the T/C (dose: 43.5 mg/kg/injection, schedule: Q01DX011 (ip), vehicle: carboxymethylcellulose (CMC)) was 47 % of control. The T/C (dose: 43.5 mg/kg/injection, schedule: Q01DX011 (ip), vehicle: other) was 109 % of control, the T/C (dose: 45.0 mg/kg/injection, schedule: Q01DX011 (iv), vehicle: other) was 89 % of control and the T/C (dose: 55.4 mg/kg/injection, schedule: Q01DX011 (ip), vehicle: carboxymethylcellulose (CMC)) was 96 % of control. For the same compound, the T/C (dose: 55.4 mg/kg/injection, schedule: Q01DX011 (ip), vehicle: other) was 45 % of control, the T/C (dose: 56.5 mg/kg/injection, schedule: Q01DX011 (ip), vehicle: other) was 54 % of control and the T/C (dose: 58.0 mg/kg/injection, schedule: Q01DX011 (ip), vehicle: carboxymethylcellulose (CMC)) was 29 % of control. For the same compound, the T/C (dose: 60.75 mg/kg/injection, schedule: Q01DX011 (ip), vehicle: carboxymethylcellulose (CMC)) was 78 % of control, the T/C (dose: 62.5 mg/kg/injection, schedule: Q01DX011 (ip), vehicle: carboxymethylcellulose (CMC)) was 88 % of control and the T/C [2] was 82 % of control. The T/C (dose: 62.5 mg/kg/injection, schedule: Q01DX011 (iv), vehicle: other) was 51 % of control and 57 % of control, the T/C (dose: 62.5 mg/kg/injection, schedule: Q01DX011 (oral), vehicle: other) was 74 % of control and the T/C (dose: 62.5 mg/kg/injection, schedule: Q01DX011 (oral), vehicle: saline) was 105 % of control. The T/C (dose: 87.0 mg/kg/injection, schedule: Q01DX011 (ip), vehicle: carboxymethylcellulose (CMC)) was 11 % of control, the T/C (dose: 87.0 mg/kg/injection, schedule: Q01DX011 (ip), vehicle: other) was 14 % of control and the T/C (dose: 121.5 mg/kg/injection, schedule: Q01DX011 (ip), vehicle: carboxymethylcellulose (CMC)) was 48 % of control. For the same compound, the T/C (dose: 125.0 mg/kg/injection, schedule: Q01DX011 (ip), vehicle: carboxymethylcellulose (CMC)) was 43 % of control, the T/C (dose: 125.0 mg/kg/injection, schedule: Q01DX011 (ip), vehicle: methylcellulose (MC)) was 34 % of control and the T/C (dose: 125.0 mg/kg/injection, schedule: Q01DX011 (iv), vehicle: other) was 8 % of control. The T/C (dose: 125.0 mg/kg/injection, schedule: Q01DX011 (oral), vehicle: other) was 54 % of control, the T/C (dose: 125.0 mg/kg/injection, schedule: Q01DX011 (oral), vehicle: saline) was 106 % of control and the T/C (dose: 250.0 mg/kg/injection, schedule: Q01DX011 (ip), vehicle: carboxymethylcellulose (CMC)) was 36 % of control. For the same compound, the T/C (dose: 250.0 mg/kg/injection, schedule: Q01DX011 (oral), vehicle: saline) was 40 % of control.

In the case of `CCCCNP(=O)(N1CC1C)N1CC1C` (configuration not stated), the T/C (dose: 7.0 mg/kg/injection, schedule: Q01DX011 (ip), vehicle: saline) is reported as 53 % of control, the T/C (dose: 14.0 mg/kg/injection, schedule: Q01DX011 (ip), vehicle: saline) is reported as 53 % of control and the T/C (dose: 28.0 mg/kg/injection, schedule: Q01DX011 (ip), vehicle: saline) is reported as 25 % of control. For the same compound, the T/C (dose: 56.0 mg/kg/injection, schedule: Q01DX011 (ip), vehicle: saline) was 1 % of control.

In the case of `Cn1c(N)nc2c(ncn2C2OC(CO)C(O)C2O)c1=O` (configuration not stated), the T/C (dose: 30.0 mg/kg/injection, schedule: Q01DX011 (ip), vehicle: saline) is reported as 101 % of control, the T/C (dose: 60.0 mg/kg/injection, schedule: Q01DX011 (ip), vehicle: saline) is reported as 94 % of control and the T/C (dose: 120.0 mg/kg/injection, schedule: Q01DX011 (ip), vehicle: saline) is reported as 116 % of control.

With `[N-]=[N+]=CC(=O)NCC(=O)NN` the T/C (dose: 62.5 mg/kg/injection, schedule: Q01DX011 (ip), vehicle: saline) was 115 % of control, the T/C [3] was 39 % of control and the T/C (dose: 500.0 mg/kg/injection, schedule: Q01DX011 (ip), vehicle: saline) was 43 % of control.

For `O=c1[nH]cnc2c1ncn2C1CCCO1` (configuration not stated), the T/C (dose: 30.0 mg/kg/injection, schedule: Q01DX011 (ip), vehicle: carboxymethylcellulose (CMC)) was 80 % of control, the T/C (dose: 60.0 mg/kg/injection, schedule: Q01DX011 (ip), vehicle: carboxymethylcellulose (CMC)) was 105 % of control and the T/C (dose: 120.0 mg/kg/injection, schedule: Q01DX011 (ip), vehicle: carboxymethylcellulose (CMC)) was 106 % of control. The T/C (dose: 240.0 mg/kg/injection, schedule: Q01DX011 (ip), vehicle: carboxymethylcellulose (CMC)) was 75 % of control.

For `N#Cc1cn(Cc2ccco2)c(=O)[nH]c1=O`, the T/C (dose: 15.0 mg/kg/injection, schedule: Q01DX011 (ip), vehicle: methylcellulose (MC)) was 54 % of control, the T/C (dose: 31.0 mg/kg/injection, schedule: Q01DX011 (ip), vehicle: methylcellulose (MC)) was 84 % of control and the T/C (dose: 62.0 mg/kg/injection, schedule: Q01DX011 (ip), vehicle: methylcellulose (MC)) was 80 % of control.

In the case of `CC(C)Cn1cnc2c(=S)nc(N)[nH]c21`, the T/C (dose: 3.9 mg/kg/injection, schedule: Q01DX011 (ip), vehicle: methylcellulose (MC)) is reported as 5 % of control.

With `CN1CCC(N)=NC1=O` the T/C (dose: 15.0 mg/kg/injection, schedule: Q01DX011 (ip), vehicle: saline) was 88 % of control, the T/C (dose: 31.0 mg/kg/injection, schedule: Q01DX011 (ip), vehicle: saline) was 92 % of control and the T/C (dose: 62.0 mg/kg/injection, schedule: Q01DX011 (ip), vehicle: saline) was 92 % of control. The T/C (dose: 125.0 mg/kg/injection, schedule: Q01DX011 (ip), vehicle: saline) was 65 % of control and the T/C [3] was 74 % of control.

In the case of `CC1(c2ccccc2)O[C@@H]2C[C@H]3[C@@H]4CCC5=CC(=O)C=C[C@]5(C)[C@@]4(F)[C@@H](O)C[C@]3(C)[C@]2(C(=O)CO)O1` (some centres not stated), the T/C (dose: 2.75 mg/kg/injection, schedule: Q01DX011 (sc), vehicle: steriod suspending solution) is reported as 42 % of control and 45 % of control, the T/C (dose: 5.5 mg/kg/injection, schedule: Q01DX011 (sc), vehicle: steriod suspending solution) is reported as 14 % of control and 24 % of control and the T/C (dose: 11.0 mg/kg/injection, schedule: Q01DX011 (sc), vehicle: steriod suspending solution) is reported as 2 % of control and 24 % of control.

In the case of `CCCn1cnc2c(SCc3ccc(Br)cc3)nc(N)nc21`, the T/C (dose: 7.8 mg/kg/injection, schedule: Q01DX011 (ip), vehicle: methylcellulose (MC)) is reported as 58 % of control, the T/C (dose: 15.6 mg/kg/injection, schedule: Q01DX011 (ip), vehicle: methylcellulose (MC)) is reported as 57 % of control and the T/C [1] is reported as 20 % of control. For the same compound, the T/C [2] was 21 % of control and 23 % of control.

`COC(=O)C1C(O)CCC2CN3CCc4c([nH]c5ccccc45)C3CC21` (configuration not stated) was tested, and the T/C (dose: 150.0 mg/kg/injection, schedule: Q01DX011 (ip), vehicle: carboxymethylcellulose (CMC)) was 75 % of control.
